The source of these data is PubChem BioAssay AID258 (DTP/NCI, 2004).

Inconclusive results and toxic doses are left out.

This assay concerns CD2F1 mice, L1210 leukemia sc, survival T/C. Briefly: NCI In Vivo Anticancer Drug Screen. Data for tumor model L1210 Leukemia (subcutaneous) in CD2F1 (CDF1) mice. As to conditions: endpoint: median survival time, higher = longer survival. The gist of the method:
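Transplantable tumor-bearing mice were treated with compound; survival or tumor size measured and expressed as treated-group value (T) divided by vehicle-treated control value (C).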

Consider `Nc1ccc(C(=O)O)cn1`, for which the T/C by setting is: (dose: 14.0 mg/kg/injection, schedule: Q01DX Z (sc), vehicle: other) 100 % of control; (dose: 23.0 mg/kg/injection, schedule: Q01DX Z (sc), vehicle: other) 100 % of control; (dose: 37.0 mg/kg/injection, schedule: Q01DX Z (sc), vehicle: other) 100 % of control; (dose: 65.0 mg/kg/injection, schedule: Q01DX Z (sc), vehicle: other) 111 % of control; (dose: 108.0 mg/kg/injection, schedule: Q01DX Z (sc), vehicle: other) 100 % of control; (dose: 180.0 mg/kg/injection, schedule: Q01DX Z (sc), vehicle: other) 111 % of control.

With `O=C(Nc1ccc(C2=NCCN2)cc1)c1cccc(C(=O)Nc2ccc(C3=NCCN3)cc2)c1`, the T/C is, setting by setting: (dose: 2.0 mg/kg/injection, schedule: Q01DX Z (iv), vehicle: water) 100 % of control; (dose: 3.0 mg/kg/injection, schedule: Q01DX Z (sc), vehicle: methylcellulose (MC)) 100 % of control; (dose: 4.0 mg/kg/injection, schedule: Q01DX Z (iv), vehicle: water) 111 % of control; (dose: 5.0 mg/kg/injection, schedule: Q01DX Z (sc), vehicle: methylcellulose (MC)) 100 % of control; (dose: 5.0 mg/kg/injection, schedule: Q01DX Z (sc), vehicle: water) 111 % of control; (dose: 8.0 mg/kg/injection, schedule: Q01DX Z (iv), vehicle: water) 161 % of control. Further, the T/C (dose: 8.0 mg/kg/injection, schedule: Q01DX Z (sc), vehicle: water) was 183 % of control; the T/C (dose: 8.4 mg/kg/injection, schedule: Q01DX Z (sc), vehicle: methylcellulose (MC)) is 111 % of control; the T/C (dose: 8.4 mg/kg/injection, schedule: Q01DX Z (sc), vehicle: water) was 200 % of control; the T/C (dose: 14.0 mg/kg/injection, schedule: Q01DX Z (sc), vehicle: water) was 250 % of control; the T/C (dose: 16.0 mg/kg/injection, schedule: Q01DX Z (sc), vehicle: water) is 277 % of control; the T/C (dose: 23.0 mg/kg/injection, schedule: Q01DX Z (sc), vehicle: methylcellulose (MC)) was 222 % of control. In addition, the T/C runs as follows: (dose: 23.0 mg/kg/injection, schedule: Q01DX Z (sc), vehicle: water) 283 % of control; (dose: 32.0 mg/kg/injection, schedule: Q01DX Z (sc), vehicle: water) 305 % of control; (dose: 39.0 mg/kg/injection, schedule: Q01DX Z (sc), vehicle: methylcellulose (MC)) 161 % of control; (dose: 39.0 mg/kg/injection, schedule: Q01DX Z (sc), vehicle: water) 266 % of control; (dose: 64.0 mg/kg/injection, schedule: Q01DX Z (sc), vehicle: water) 283 % of control; (dose: 65.0 mg/kg/injection, schedule: Q01DX Z (sc), vehicle: methylcellulose (MC)) 177 % of control. In addition, the T/C is, setting by setting: (dose: 65.0 mg/kg/injection, schedule: Q01DX Z (sc), vehicle: water) 266 % of control; (dose: 128.0 mg/kg/injection, schedule: Q01DX Z (sc), vehicle: water) 283 % of control.

For the compound `O=NN(CCF)C(=O)NC1CCCCC1`, the T/C is, setting by setting: (dose: 1.85 mg/kg/injection, schedule: Q01DX Z (sc), vehicle: carboxymethylcellulose (CMC)) 100 % of control; (dose: 3.75 mg/kg/injection, schedule: Q01DX Z (sc), vehicle: carboxymethylcellulose (CMC)) 111 % of control; (dose: 7.5 mg/kg/injection, schedule: Q01DX Z (sc), vehicle: carboxymethylcellulose (CMC)) 376 % of control; (dose: 15.0 mg/kg/injection, schedule: Q01DX Z (sc), vehicle: carboxymethylcellulose (CMC)) 394 % of control; (dose: 30.0 mg/kg/injection, schedule: Q01DX Z (sc), vehicle: carboxymethylcellulose (CMC)) 211 % of control.
